# US6737383B1, “Herbicidal oxadiazolidines” (priority 1999, dated 2004)
# Legend:
# rape = experiment: Test B pre/postemergence rape; assay type: in vivo, Brassica napus
# How it was run: (§1)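 Response is a visual 0-to-10 score relative to untreated plants, where 0 means no effect and 10 means complete control, taken twelve to sixteen days after application. Treatments went onto soil at planting and onto foliage of 1- to 4-leaf plants, using a surfactant-containing non-phytotoxic solvent.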
# corn = experiment: Test B pre/postemergence corn; assay type: in vivo, Zea mays
# How it was run: as §1
# smallflower flatsedge = experiment: Test B flood test smallflower flatsedge; assay type: in vivo, Cyperus difformis
# How it was run: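 Read-out is a visual response score from 0 (no effect) to 10 (complete control), assigned by comparison with untreated controls. Treatment was applied at the 2-leaf stage, and plants stayed in the greenhouse for twelve to sixteen days before scoring.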
# soybean = experiment: Test B pre/postemergence soybean; assay type: in vivo, Glycine max
# How it was run: as §1
# [1] = Preemergence, Rate 62 g/ha, scale of 0 to 10 where 0 is no effect and 10 is complete control
# [2] = Preemergence, Rate 250 g/ha, scale of 0 to 10 where 0 is no effect and 10 is complete control
# [3] = Preemergence, Rate 500 g/ha, scale of 0 to 10 where 0 is no effect and 10 is complete control
# [4] = Rate 62 g/ha, Postemergence, scale of 0 to 10 where 0 is no effect and 10 is complete control
# [5] = Rate 125 g/ha, Postemergence, scale 0 to 10
# [6] = Rate 125 g/ha, Preemergence, scale of 0 to 10 where 0 is no effect and 10 is complete control
# [7] = Rate 500 g/ha, Postemergence, scale 0 to 10, 0 no effect, 10 complete control
# [8] = Rate 62 g/ha, headed Pre-emergence (flood test species), scale 0 to 10 (0 no effect, 10 complete control)
# [9] = Rate 125 g/ha, Pre-emergence, flood test species, scale 0 to 10 where 0 is no effect and 10 is complete control
# [10] = Rate 250 g/ha, Pre-emergence, flood-test species, scale 0 to 10, 0 is no effect, 10 is complete control
# [11] = Rate 500 g/ha, Pre-emergence, flood test species, scale 0 to 10 (0 no effect, 10 complete control)
# [12] = Postemergence, Rate 1000 g/ha, scale 0 to 10 (0 no effect, 10 complete control)
# [13] = Rate 1000 g/ha, Preemergence, scale 0 to 10 (0 no effect, 10 complete control)
# [14] = Rate 125 g/ha, Postemergence, scale of 0 to 10 where 0 is no effect and 10 is complete control
# [15] = Rate 250 g/ha, Postemergence, scale of 0 to 10 where 0 is no effect and 10 is complete control
Compound,Rape plant response rating (rape; [1]),Rape plant response rating (rape; [2]),"Plant response rating, Rape (rape; [3])",Rape plant response rating (rape; [6]),"Plant response rating (0 to 10; 0 is no effect, 10 is complete control), Rape (rape; Rate 250 g/ha, Postemergence)",Rape plant response rating (rape; [7]),Corn plant response rating (corn; [1]),Corn plant response rating (corn; [2]),"Plant response rating, Corn (corn; [3])",Corn plant response rating (corn; [4]),Corn plant response rating (corn; [5]),Corn plant response rating (corn; [6]),"Plant response rating (0 to 10; 0 is no effect, 10 is complete control), Corn (corn; Rate 250 g/ha, Postemergence)",Corn plant response rating (corn; [7]),S. Flatsedge plant response rating (smallflower flatsedge; [9]),S. Flatsedge plant response rating (smallflower flatsedge; [10]),S. Flatsedge plant response rating (smallflower flatsedge; [11]),Soybean plant response rating (soybean; [2]),"Plant response rating, Soybean (soybean; [3])",Soybean plant response rating (soybean; [6]),also measured
Cc1ccccc1-n1c(=O)on(C(=O)N(c2ccc(C(C)C)cc2)C(C)C)c1=O [Compound 231],0,0,0,0,0,0,0,0,0,0,0,0,0,0,0,0,0,0,0,0,"Rape plant response rating (rape; [4]): 0; Rape plant response rating (rape; [5]): 0; S. Flatsedge plant response rating (smallflower flatsedge; [8]): 0; Soybean plant response rating (soybean; [1]): 0; Soybean plant response rating (soybean; [4]): 0; Soybean plant response rating (soybean; [5]): 1; Plant response rating (0 to 10; 0 is no effect, 10 is complete control), Soybean (soybean; Rate 250 g/ha, Postemergence): 1; Soybean plant response rating (soybean; [7]): 1"
CCOC(=O)C(C)N(C(=O)n1oc(=O)n(-c2ccccc2C)c1=O)c1ccc(F)cc1 (centres unmarked) [Compound 247],,0,0,0,0,0,,0,0,,0,0,0,0,0,0,0,0,0,0,"Rape plant response rating (rape; [12]): 0; Plant response rating, Rape (rape; [13]): 0; Corn plant response rating (corn; [12]): 0; Plant response rating, Corn (corn; [13]): 0; S. Flatsedge plant response rating (smallflower flatsedge; Pre-emergence, Rate 1000 g/ha, scale 0 to 10 (0 no effect, 10 complete control)): 0; Soybean plant response rating (soybean; [12]): 1; Soybean plant response rating (soybean; [7]): 0; Plant response rating, Soybean (soybean; [13]): 0"
Cc1ccccc1-n1c(=O)on(C(=O)N(c2ccc(Oc3ccccc3)cc2)C(C)C)c1=O [Compound 268],0,0,0,0,,,0,0,0,0,,0,,3,0,0,0,0,0,0,"Rape plant response rating (rape; [14]): 0; Plant response rating, Rape (rape; [15]): 0; Corn plant response rating (corn; [14]): 0; Plant response rating, Corn (corn; [15]): 0; S. Flatsedge plant response rating (smallflower flatsedge; [8]): 0; Soybean plant response rating (soybean; [1]): 0; Soybean plant response rating (soybean; [14]): 0; Plant response rating, Soybean (soybean; [15]): 0"
